Results published in paper PMC6017830, “Furan- and Thiophene-2-Carbonyl Amino Acid Derivatives Activate Hypoxia-Inducible Factor via Inhibition of Factor Inhibiting Hypoxia-Inducible Factor-1” (Molecules : A Journal of Synthetic Chemistry and Natural …, 2018).

How the values were obtained:
SKN:HRE-MLuc cells = experiment: MTS assay (cellular toxicity); type: cell-based, human; details: MTS assay
Text: Next, we evaluated the activation of HIF by furan- and thiophene-2-carbonyl amino acid derivatives using the evaluation methods described above. Simultaneously, we investigated cellular toxicity for those derivatives with a 3-(4,5-dimethylthiazol-2-yl)-5-(3-carboxymethoxyphenyl)-2-(4-sulfophenyl)-2H-tetrazolium (MTS) assay. To indicate cellular membrane permeability, the partition coefficients, which are frequently represented by calculated logP (clogP) are listed in Table 1 and Table 2.
Cellular toxicity was measured using the CellTiter 96® Aqueous One Solution Cell Proliferation Assay kit (Promega, Madison, WI, USA). The cells were stimulated with each compound and treated with the CellTiter solution. After incubation for 3 h, the absorbance of the solutions at 492 nm was measured by Multiskan FC (Thermo Fisher Scientific, Waltham, MS, USA). As a negative control, wells with culture media were used. Wells treated with DMSO (0.1%) were used as a positive control. The IC50 values were determined using these controls.

[1] = system: HIF-HRE transcriptional activity in SKN:HRE-MLuc cells (reflects FIH-1 inhibition); experiment: HIF activity under hypoxia, HRE-MLuc luciferase reporter assay; type: cell-based, human; details: for activation at 100 µM / minimal effective concentration: Homo sapiens; for activation at 100 µM: read-out: 100 μM Activity (RLU intensity at 100 μM stimulation compared with the positive control DMOG); for minimal effective concentration: doses 100, 25, 6.3, 1.6 μM, DMOG 100 μM as positive control, read-out: 25% Activity (lower dose limit showing 25% of the RLU intensity of the positive control DMOG); for HIF activity (HRE-MLuc reporter), result in words: hypoxic conditions (3% O2), 24 h, reference compounds at 100 μM
Procedure: To evaluate HIF transactivation following FIH-1 inhibition […], we employed a luciferase reporter assay system in the human neuroblastoma cell line SK-N-BE(2)c. […] Hereafter these HRE reporter cells were designated SKN:HRE-MLuc cells.
SKN:HRE-MLuc (4 × 10^4) were incubated for 24 h on a 96 well culture plate. The medium was replaced with complete media and the test compounds (100, 25, 6.3 and 1.6 μM). DMSO (0.1%) was used as a vehicle control, DMOG (100 μM) and FG4592 (100 μM) were used as a PHDs or FIH-1 inhibitor. The cells were incubated for 24 h under a humidified atmosphere of 5% CO2 and 3% O2 at 37 °C. After incubation, the MLuc activity in culture media was measured with luciferase substrate (Takara, Shiga, Japan) by LB960 luminometer (Berthold, Wildbad, Germany). The HIF activity was calculated as the MLuc intensity, based on the vehicle and positive controls. The lower limit dose out of 100 μM, 25 μM, 6.3 μM, 1.6 μM was listed in Table 1 and Table 2, where 25% RLU intensity was measured using DMOG as a positive control.

[2] = 100 μM, SKN:HRE-MLuc cells, 3% O2, 24 h
[3] = SKN:HRE-MLuc cells, 3% O2, 24 h

Compound | IC50 (SKN:HRE-MLuc cells; Homo sapiens) [µM] | activation at 100 µM [1, 2] [%] | minimal effective concentration [1, 3] [µM] | HIF activity (HRE-MLuc reporter), result in words [1] | IC50 (SKN:HRE-MLuc cells) [µM] | 100 μM Activity (RLU intensity at 100 μM stimulation compared with the positive control DMOG) [1, 2] [%]
COC(=O)CNC(=O)c1ccco1 [Compound 1, Methyl (furan-2-carbonyl)glycinate] | > 100 | 20 | 25 | stabilized HIF and transactivated the HRE-driven MLuc reporter |  | 
COC(=O)CNC(=O)c1cccs1 [Compound 2, Methyl (thiophene-2-carbonyl)glycinate] | > 100 | 0 |  |  |  | 
COC(=O)[C@H](Cc1c[nH]c2ccccc12)NC(=O)c1ccco1 [Compound 3, (S)-Methyl (furan-2-carbonyl)tryptophanate] | > 100 | 0 |  |  |  | 
COC(=O)[C@@H](Cc1c[nH]c2ccccc12)NC(=O)c1ccco1 [Compound 4, (R)-Methyl (furan-2-carbonyl)tryptophanate] | > 100 | 0 |  |  |  | 
COC(=O)[C@H](Cc1c[nH]c2ccccc12)NC(=O)c1cccs1 [Compound 5, (S)-Methyl (thiophene-2-carbonyl)tryptophanate] | > 100 | 0 |  |  |  | 
COC(=O)[C@@H](Cc1c[nH]c2ccccc12)NC(=O)c1cccs1 [Compound 6, (R)-Methyl (thiophene-2-carbonyl)tryptophanate] | > 100 | 0 |  |  |  | 
COC(=O)[C@@H](Cc1ccccc1)NC(=O)c1ccc(C)o1 [Compound 8, (R)-Methyl (5-methylfuran-2-carbonyl)phenylalaninate] | > 100 | 2 |  |  |  | 
COC(=O)[C@@H](Cc1c[nH]c2ccccc12)NC(=O)c1ccc(C)o1 [Compound 10, (R)-Methyl (5-methylfuran-2-carbonyl)tryptophanate] | > 100 | 0 | 6.3 |  |  | 
Cc1ccc(C(=O)NCC(=O)O)s1 [Compound 11, (5-Methylthiophene-2-carbonyl)glycine] | > 100 | 23 | 25 |  |  | 
Cc1ccc(C(=O)N[C@@H](C)C(=O)O)s1 [Compound 12, (S)-(5-Methylthiophene-2-carbonyl)alanine] | > 100 | 18 |  |  |  | 
CCOC(=O)[C@H](C)NC(=O)c1ccc(C)s1 [Compound 13, (S)-Ethyl (5-methylthiophene-2-carbonyl)alaninate] | > 100 | 0 |  |  |  | 
COC(=O)[C@@H](Cc1ccccc1)NC(=O)c1ccc(C)s1 [Compound 14, (R)-Methyl (5-methylthiophene-2-carbonyl)phenylalaninate] | > 100 | 0 |  |  |  | 
CCOC(=O)[C@H](Cc1ccccc1)NC(=O)c1ccc(C)s1 [Compound 15, (S)-Ethyl (5-methylthiophene-2-carbonyl)phenylalaninate] | > 100 | 12 | 25 |  |  | 
Cc1ccc(C(=O)N[C@H](Cc2c[nH]c3ccccc23)C(=O)O)s1 [Compound 16, (R)-(5-methylthiophene-2-carbonyl)tryptophan] | > 100 | 30 | 100 |  |  | 
CCOC(=O)[C@H](Cc1c[nH]c2ccccc12)NC(=O)c1ccc(C)s1 [Compound 17, (S)-Ethyl (5-methylthiophene-2-carbonyl)tryptophanate] | > 100 | 49 | 100 |  |  | 
CCOC(=O)[C@@H](Cc1c[nH]c2ccccc12)NC(=O)c1ccc(C)s1 [Compound 18, (R)-Ethyl (5-methylthiophene-2-carbonyl)tryptophanate] | > 100 | 52 | 100 |  |  | 
O=C(N[C@@H](Cc1ccccc1)C(=O)O)c1ccc(-c2ccccc2)o1 [Compound 19, (S)-(5-Phenylfuran-2-carbonyl)phenylalanine] | > 100 | 0 |  |  |  | 
COC(=O)[C@H](Cc1ccccc1)NC(=O)c1ccc(-c2ccccc2)o1 [Compound 20, (S)-Methyl (5-phenylfuran-2-carbonyl)phenylalaninate] | > 100 | 10 |  |  |  | 

Compound | IC50 (SKN:HRE-MLuc cells; Homo sapiens) [µM] | activation at 100 µM [1, 2] [%] | minimal effective concentration [1, 3] [µM] | HIF activity (HRE-MLuc reporter), result in words [1] | IC50 (SKN:HRE-MLuc cells) [µM] | 100 μM Activity (RLU intensity at 100 μM stimulation compared with the positive control DMOG) [1, 2] [%]
C[C@H](NC(=O)c1ccc(-c2ccccc2)s1)C(=O)O [Compound 21, (S)-(5-Phenylthiophene-2-carbonyl)alanine] | > 100 | 0 |  |  |  | 
CCOC(=O)[C@H](C)NC(=O)c1ccc(-c2ccccc2)s1 [Compound 22, (S)-Ethyl (5-phenylthiophene-2-carbonyl)alaninate] | > 100 | 16 |  |  |  | 
O=C(N[C@@H](Cc1ccccc1)C(=O)O)c1ccc(-c2ccccc2)s1 [Compound 23, (S)-(5-Phenylthiophene-2-carbonyl)phenylalanine] | > 100 | 0 |  |  |  | 
COC(=O)[C@H](Cc1ccccc1)NC(=O)c1ccc(-c2ccccc2)s1 [Compound 24, (S)-Methyl (5-phenylthiophene-2-carbonyl)phenylalaninate] | > 100 | 7 |  |  |  | 
COC(=O)[C@H](Cc1c[nH]c2ccccc12)NC(=O)c1ccc(-c2ccccc2)s1 [Compound 25, (S)-Methyl (5-phenylthiophene-2-carbonyl)tryptophanate] | > 100 | 0 |  |  |  | 
CCOC(=O)[C@H](Cc1ccccc1)NC(=O)c1ccc(-c2ccc(-c3ccccc3)cc2)s1 [Compound 32, (S)-Ethyl (5-((1,1′-biphenyl)-4-yl)thiophene-2-carbonyl)phenylalaninate] | > 100 | 0 |  |  |  | 
COC(=O)CNC(=O)c1ccc(-c2ccc(Oc3ccccc3)cc2)s1 [Compound 33, Methyl (5-(4-phenoxyphenyl)thiophene-2-carbonyl)glycinate] | > 100 | 0 |  |  |  | 
COC(=O)[C@H](C)NC(=O)c1ccc(-c2ccc(Oc3ccccc3)cc2)s1 [Compound 34, (S)-Methyl (5-(4-phenoxyphenyl)thiophene-2-carbonyl)alaninate] | > 100 | 0 |  |  |  | 
CCOC(=O)[C@H](Cc1ccccc1)NC(=O)c1ccc(-c2ccc(Oc3ccccc3)cc2)s1 [Compound 35, (S)-Ethyl (5-(4-phenoxyphenyl)thiophene-2-carbonyl)phenylalaninate] | > 100 | 0 |  |  |  | 
COC(=O)[C@H](Cc1c[nH]c2ccccc12)NC(=O)c1ccc(-c2ccc(Oc3ccccc3)cc2)s1 [Compound 36, (S)-Methyl (5-(4-phenoxyphenyl)thiophene-2-carbonyl)tryptophanate] | > 100 | 0 |  |  |  | 
CCOC(=O)[C@H](Cc1ccccc1)NC(=O)c1cc2ccccc2o1 [Compound 37, (S)-Ethyl (benzofuran-2-carbonyl)phenylalaninate] | > 100 | 0 |  |  |  | 
COC(=O)CNC(=O)c1cc2ccccc2s1 [Compound 39, Methyl (benzothiophene-2-carbonyl)glycinate] | > 100 | 13 |  |  |  | 
CCOC(=O)[C@H](C)NC(=O)c1cc2ccccc2s1 [Compound 40, (S)-Ethyl (benzothiophene-2-carbonyl)alaninate] | > 100 | 0 |  |  |  | 
CCOC(=O)[C@H](Cc1ccccc1)NC(=O)c1cc2ccccc2s1 [Compound 41, (S)-Ethyl (benzothiophene-2-carbonyl)phenylalaninate] | > 100 | 2 |  |  |  | 
COC(=O)[C@H](Cc1c[nH]c2ccccc12)NC(=O)c1cc2ccccc2s1 [Compound 43, (S)-Methyl (benzothiophene-2-carbonyl)tryptophanate] | > 100 | 0 |  |  |  | 
COC(=O)[C@H](Cc1ccc(O)cc1)NC(=O)c1cc2ccccc2s1 [Compound 44, (S)-Methyl (benzothiophene-2-carbonyl)tyrosinate] | > 100 | 0 |  |  |  | 
COC(=O)C(=O)N[C@H](Cc1ccccc1)C(=O)OC [DM-NOFD, dimethyl N-oxalyl-D-phenylalanine, reference compound] |  |  |  | significantly enhanced HIF activity |  | 
(R)-Ethyl (benzothiophene-2-carbonyl)phenylalaninate [Compound 42] |  |  |  |  | > 100 | 0
